Holding throughout (assay): relative viability (nuclei count vs DMSO), 5 days (fraction); higher = more cells survive
Compound in assay [1]: CC1=CC(=NN1)NC2=CC(=NC(=N2)/C=C/C3=CC=CC=C3)N4CCN(CC4)C + CC(=O)c1c(C)c2cnc(Nc3ccc(N4CCNCC4)cn3)nc2n(C2CCCC2)c1=O [Palbociclib] (partner 0.5 µM)
The gist of the method:
(§1)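 Relative viability divides the nuclei count in treated wells by that in vehicle wells. Lung cancer cell lines were seeded in 1536-well plates, dosed by pin tool the next day, and fixed and stained after 5 days in one step with final 0.05% Triton X-100, 1% formaldehyde and 1 ug/ml Hoechst. Dosing was a single drug or a fixed anchor-drug dose plus five library-drug doses (not always all listed) in √10 steps, and values are medians of duplicate plates imaged at 4×.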

Compound in assay [2]: CC(C)C[C@H](NC(=O)[C@H](Cc1ccccc1)NC(=O)c1cnccn1)B(O)O [Bortezomib] + CC(=O)c1c(C)c2cnc(Nc3ccc(N4CCNCC4)cn3)nc2n(C2CCCC2)c1=O [Palbociclib] (partner 0.5 µM)
The method, boiled down: as §1

Compound in assay [3]: COC1=CC(c2cc3ccccc3[nH]2)=N/C1=C\c1[nH]c(C)cc1C [Obatoclax] + COc1cccc2cc(-c3nc([C@H]4CC[C@H](C(=O)O)CC4)n4ncnc(N)c34)[nH]c12 [OSI-027] (partner 0.5 µM)
The gist of the method:
as §1

Compound in assay [4]: CC(C)C[C@H](NC(=O)[C@H](Cc1ccccc1)NC(=O)c1cnccn1)B(O)O [Bortezomib] + COc1cccc2cc(-c3nc([C@H]4CC[C@H](C(=O)O)CC4)n4ncnc(N)c34)[nH]c12 [OSI-027] (partner 0.5 µM)
The gist of the method:
as §1

As to NCI-H650, the relative viability in assay [1] (first compound 0.08 µM) was determined as 0.288; in assay [1] (first compound 0.253 µM), 0.321; in assay [1] (first compound 0.8 µM), 0.339; in assay [1] (first compound 2.53 µM), 0.294; in assay [1] (first compound 8 µM), 0.177; in assay [2] (first compound 0.0002 µM), 0.335. For the same cell line, the relative viability in assay [2] (first compound 0.000632 µM) is 0.27; in assay [2] (first compound 0.002 µM), 0.31; in assay [2] (first compound 0.006325 µM), 0.243; in assay [2] (first compound 0.02 µM) it was 0.149; in assay [3] (first compound 0.01 µM) it was 0.568; in assay [3] (first compound 0.03162 µM) it was 0.449. In addition, the relative viability in assay [3] (first compound 0.3162 µM) was found to be 0.419; in assay [3] (first compound 1 µM), 0.274; in assay [4] (first compound 0.000632 µM), 0.522; in assay [4] (first compound 0.002 µM), 0.536; in assay [4] (first compound 0.006325 µM), 0.595; in assay [4] (first compound 0.02 µM), 0.207.

Source of the values: the supplement of paper PMC10307832.
